Results as given in patent US6156724A, “Uses of didemnins as immunomodulating agents” (priority 1998, dated 2000).
Like-named read-outs stand apart in the source and are kept apart here. Numbered stars: 1 amine (or outer) side, 2 acyl side, 3 side chain; on linkers, the order of the positions; unused ones are H or OH. Bridge positions count the residues as written; N and C are the ends. Square brackets hold non-standard residues; d marks the D form. Peptide text beside a SMILES is read from it. * marks the point of attachment. X1 = CC[C@H](C)[C@@H](N[*:1])[C@@H](O)CC(=O)O[C@H](C(=O)[C@H](C)C(=O)[*:2])C(C)C; NMeY = CN[C@@H](Cc1ccc(O)cc1)C(=O)O; dNMeL = CN[C@H](CC(C)C)C(=O)O; pGlu = O=C1CC[C@@H](C(=O)O)N1; Isobutyryl = CC(C)C(=O)*; Lac = C[C@H](O)C(=O)O

Experiments:
[1] = system: concanavalin A-induced lymphoblasts (Con A splenocytes); assay: Lymphoblast viability (LbV) assay; settings: Con A-stimulated splenocytes (lymphoblasts), MTT
[2] = system: Balb/c splenocytes (resting lymphocytes); assay: Lymphocyte viability (LcV) assay; type: cell-based, murine; settings: unstimulated Balb/c splenocytes, MTT
How it was run: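 Resting Balb/c splenocytes incubated with compounds under MLR-equivalent conditions, then pulsed overnight with MTT; formazan dissolved in isopropanol and absorbance read at 570 nm. Viability expressed as percent of untreated Balb/c control metabolic activity, with LC50 interpolated.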

[3] = system: CB6F1 mice grafted with Balb/c splenocytes; assay: Graft vs host reaction (GVHR) splenomegaly assay; type: in vivo; settings: for alive day 8 / body weight change day 5 / body weight day 5 (g ± SD) / index (spleen wt. treated/spleen wt. syngenetic injection) / mean group spleen wt. normalized to day 8 body weight: QD 1-7, ip
Protocol: Three representative compounds didemnin M (38), O-pGlu-DB (37), and didemnin B (1)-showing high (37,38) or moderate (1) in vivo immunosuppressive activity were subsequently evaluated in a multidose assay (0.16,0.016, and 0.0016 mg/kg per injection; qd 1-7) for their in vivo immunosuppressive effects on the GVHR splenomegaly assay.
Three didemnins (didemnin B, didemnin M, and pGlu-didemnin B) were evaluated in a modified Simonsen splenomegaly assay. Briefly, an F1 hybrid host animal is grated with immunocompetent spleen cells from the parent strain. The index used to measure the success of the GVHR is splenomegaly (increased spleen weight due to cellular proliferation of grafted lymphocytes). An index>1.3 (graft index) is considered to be a successful graft rejection of the recipient animal. Immunosuppression is considered as a reduction of the graft index.
On day O, CB6F1 female mice, 4 weeks of age, were grated by intraperitoneal (ip) injection of 50×10^5 splenocytes from BALB/c female mice in high-glucose ([…]) Dulbecco's modified Eagles medium. A syngeneic control group (CB6F1 --CB6F1) was similarly prepared and served as the negative control. Grafted mice were divided into treatment groups containing six mice each. Groups were injected ip with test compound (dissolved in vehicle; 1% abs. EtOH in sterile phosphate-buffered saline) at one of three dose levels (0.16, 0.016, and 0.0016 mg/kg per injection) in a multidose assay, cyclophosphamide (200 mg/kg per injection) or vehicle on days 1-7 (qd 1-7). On day 8 all groups were sacrificed, spleens were excised, and a graft index was calculated for each group by the following formula: [formula]

[4] = system: murine splenocytes (Balb/c and C57B1/6); assay: Two-way mixed lymphocyte reaction (MLR) assay;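 also: proliferation read as tritiated thymidine incorporation into newly made DNA after an overnight pulse, expressed as percent of control activity, IC50 interpolated per compound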
Rift Valley fever virus = settings: mouse, in vivo; cited from earlier work
[5] = Balb/c + C57B1/6 splenocytes, 96 h, [3H]thymidine
[6] = 160 μg/kg per injection (highest dose)
[7] = read-out: two-way mixed lymphocyte reaction (MLR) suppression MLR, IC50, Balb/c + C57B1/6 splenocytes, 96 h, [3H]thymidine

Compound	cytotoxicity to lymphocytes LbV, LC50 [1] [nM]	cytoxicity to lymphocytes LcV, LC50 [2] [nM]	cytoxicity to lymphocytes LcV, LC50 ([2]; highest concentration 10 μg/mL) [µg/mL]	alive day 8 ([3]; 0.0016 mg/Kg/day) [%]	body weight change day 5 ([3]; 0.0016 mg/Kg/day) [g]	body weight day 5 (g ± SD) ([3]; 0.0016 mg/Kg/day) [g]	index (spleen wt. treated/spleen wt. syngenetic injection) ([3]; 0.0016 mg/Kg/day)	mean group spleen wt. normalized to day 8 body weight ([3]; 0.0016 mg/Kg/day)	alive day 8 ([3]; 0.016 mg/Kg/day) [%]	body weight change day 5 ([3]; 0.016 mg/Kg/day) [g]	body weight day 5 (g ± SD) ([3]; 0.016 mg/Kg/day) [g]	index (spleen wt. treated/spleen wt. syngenetic injection) ([3]; 0.016 mg/Kg/day)	mean group spleen wt. normalized to day 8 body weight ([3]; 0.016 mg/Kg/day)	alive day 8 ([3]; 0.16 mg/Kg/day) [%]	body weight change day 5 ([3]; 0.16 mg/Kg/day) [g]	body weight day 5 (g ± SD) ([3]; 0.16 mg/Kg/day) [g]	index (spleen wt. treated/spleen wt. syngenetic injection) ([3]; 0.16 mg/Kg/day)	mean group spleen wt. normalized to day 8 body weight ([3]; 0.16 mg/Kg/day)	two-way mixed lymphocyte reaction (MLR) suppression MLR, IC50 [4, 5] [ng/mL]	IC50 [4, 7] [nM]	further results
CC[C@H](C)[C@H]1NC(=O)[C@@H](NC(=O)[C@@H](CC(C)C)N(C)C(=O)[C@@H]2CCCN2C(=O)[C@H](C)OC(=O)[C@H](CCC(N)=O)NC(=O)[C@@H]2CCC(=O)N2)[C@@H](C)OC(=O)[C@H](Cc2ccc(OC)cc2)N(C)C(=O)[C@@H]2CCCN2C(=O)[C@H](CC(C)C)NC(=O)[C@@H](C)C(=O)[C@H](C(C)C)OC(=O)C[C@@H]1O [Compound 38, Didemnin M] ([pGlu]Q[Lac]P[dNMeL]T[X1]LP[NMeY](Me); ester 6-C)	0.25	> 7410	> 10	100	1.4	17.2 ± 1.2	1.27	4.1	100	-0.2	17.8 ± 0.7	1.38	4.4	100	1.0	16.4 ± 1.0	1.54	4.9	0.001	–	suppression of allogeneically induced splenomegaly response compared to control ([3]; 1.6 μg/kg per injection): 61%; toxicity to the animals ([3]; 16 and 160 μg/kg): not toxic
CC[C@H](C)[C@H]1NC(=O)[C@@H](NC(=O)[C@@H](CC(C)C)N(C)C(=O)[C@@H]2CCCN2C(=O)[C@H](C)OC(=O)[C@@H]2CCC(=O)N2)[C@@H](C)OC(=O)[C@H](Cc2ccc(OC)cc2)N(C)C(=O)[C@@H]2CCCN2C(=O)[C@H](CC(C)C)NC(=O)[C@@H](C)C(=O)[C@H](C(C)C)OC(=O)C[C@@H]1O [Compound 37, O-Pyroglutamyldidemnin B] ([pGlu][Lac]P[dNMeL]T[X1]LP[NMeY](Me); ester 5-C)	0.079	> 8200	> 10	100	0.4	17.4 ± 1.7	1.63	5.2	100	0.8	17.2 ± 1.5	1.76	5.6	100	-0.6	15.2 ± 1.2	1.32	4.2	0.007	0.0053	suppression of allogeneically induced splenomegaly response compared to control ([3]; 160 μg/kg per injection): 54%; toxicity to the animals [3, 6]: neither was toxic; IC50 ([4]; read-out: MLR IC50): 0.0053 nM
CC[C@H](C)[C@H]1NC(=O)[C@@H](NC(=O)[C@@H](CC(C)C)N(C)C(=O)[C@@H]2CCCN2C(=O)C(C)O)[C@@H](C)OC(=O)[C@H](Cc2ccc(OC)cc2)N(C)C(=O)[C@@H]2CCCN2C(=O)[C@H](CC(C)C)NC(=O)[C@@H](C)C(=O)[C@H](C(C)C)OC(=O)C[C@@H]1O (stereo partly shown) [Compound 1, didemnin B]	0.6	6340	7.00	100	1.0	18.4 ± 0.8	1.91	6.1	100	1.0	18.2 ± 0.7	1.33	4.2	100	-1.4	15.6 ± 1.6	1.24	4.0	0.46	0.42	protected Rift Valley fever virus-infected mice (Rift Valley fever virus): 90%; suppression of allogeneically induced splenomegaly response compared to control ([3]; 1.6 μg/kg per injection): not effective; suppression of allogeneically induced splenomegaly response compared to control ([3]; 16 μg/kg per injection): 53%; suppression of allogeneically induced splenomegaly response compared to control ([3]; 160 μg/kg per injection): 66%; toxicity to the animals [3, 6]: neither was toxic
CC[C@H](C)[C@H]1NC(=O)[C@@H](NC(=O)[C@@H](CC(C)C)N(C)C(=O)[C@H]2CCCN2C(=O)C(C)C)[C@@H](C)OC(=O)[C@H](Cc2ccc(OC)cc2)N(C)C(=O)[C@@H]2CCCN2C(=O)[C@H](CC(C)C)NC(=O)[C@@H](C)C(=O)[C@H](C(C)C)OC(=O)C[C@@H]1O [Compound 34, [Isobutyryl^9, D-Pro^8] Didemnin B] (Isobutyryl-[dP][dNMeL]T[X1]LP[NMeY](Me); ester 3-C)	4.81	5600	6.20	–	–	–	–	–	–	–	–	–	–	–	–	–	–	–	0.67	0.6	–
Didemnin X [Compound 41]	3.1	6010	10.0	–	–	–	–	–	–	–	–	–	–	–	–	–	–	–	0.83	0.5	–
